Measured values taken from ChEMBL document CHEMBL5032494, “Novel Mixed NOP/Opioid Receptor Peptide Agonists” (J Med Chem, 2021).
Active and inactive are the calls of the source. The calls are words filed in the database; no cut-off is given here. Where a SMILES comes first, the peptide text is derived from it. [ ]: non-standard residue; d: D form. Phe(4-NO2) = N[C@@H](Cc1ccc([N+](=O)[O-])cc1)C(=O)O; Bip = N[C@@H](Cc1ccc(-c2ccccc2)cc1)C(=O)O; Phe(4-NH2) = Nc1ccc(C[C@H](N)C(=O)O)cc1; Phe(4-F) = N[C@@H](Cc1ccc(F)cc1)C(=O)O; 1Nal = N[C@@H](Cc1cccc2ccccc12)C(=O)O; 2Nal = N[C@@H](Cc1ccc2ccccc2c1)C(=O)O; Dmt = Cc1cc(O)cc(C)c1C[C@H](N)C(=O)O; hPhe = N[C@@H](CCc1ccccc1)C(=O)O; Phg = N[C@H](C(=O)O)c1ccccc1; Dab = NCC[C@H](N)C(=O)O; Abu = CC[C@H](N)C(=O)O; Dap = NC[C@H](N)C(=O)O

What was measured:
[1] = biological target: T1, Mu-type opioid receptor (Homo sapiens, UniProt P35372); test: Agonist activity at human mu opioid receptor expressed in CHO cells assessed as stimulation of calcium mobilization by measuring concentration relative curve at 10 uM by Fluo-4 AM dye based analysis; type: functional, cell-based
T1 sequence (P35372 whole entry): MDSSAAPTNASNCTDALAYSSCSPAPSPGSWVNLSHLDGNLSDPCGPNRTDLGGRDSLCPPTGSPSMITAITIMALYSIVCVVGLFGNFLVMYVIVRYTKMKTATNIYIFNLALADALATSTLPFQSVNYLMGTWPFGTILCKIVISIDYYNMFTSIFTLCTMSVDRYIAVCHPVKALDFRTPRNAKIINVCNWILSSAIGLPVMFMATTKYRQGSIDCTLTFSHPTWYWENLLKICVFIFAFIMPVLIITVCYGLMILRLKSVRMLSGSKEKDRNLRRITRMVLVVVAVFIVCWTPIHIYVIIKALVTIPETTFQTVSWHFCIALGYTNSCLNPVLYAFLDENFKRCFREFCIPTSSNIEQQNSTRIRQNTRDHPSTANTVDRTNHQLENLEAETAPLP

[2] = biological target: T2, Nociceptin receptor (Homo sapiens, UniProt P41146); test: Agonist activity at human NOP receptor expressed in CHO cells assessed as stimulation of calcium mobilization by Fluo-4 AM dye based analysis
T2 sequence (P41146 whole entry): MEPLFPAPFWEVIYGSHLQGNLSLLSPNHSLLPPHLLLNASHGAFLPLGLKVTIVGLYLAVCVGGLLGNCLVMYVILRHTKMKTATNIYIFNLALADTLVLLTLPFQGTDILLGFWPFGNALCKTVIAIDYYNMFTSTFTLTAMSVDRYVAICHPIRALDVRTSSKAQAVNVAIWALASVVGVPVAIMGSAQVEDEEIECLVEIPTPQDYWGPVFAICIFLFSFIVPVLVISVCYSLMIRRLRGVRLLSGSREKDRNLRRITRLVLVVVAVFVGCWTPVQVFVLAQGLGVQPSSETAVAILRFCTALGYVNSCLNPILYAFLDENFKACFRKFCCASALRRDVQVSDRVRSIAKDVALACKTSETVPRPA

[3] = test system: CHO; test: Concentration ratio of human NOP receptor expressed in CHO cells to human mu opioid receptor expressed in CHO cells; type: cell-based
[4] = biological target: T1, Mu-type opioid receptor; test: Agonist activity at human mu opioid receptor expressed in CHO cells assessed as stimulation of calcium mobilization by Fluo-4 AM dye based analysis
[5] = biological target: T1, Mu-type opioid receptor; test: Agonist activity at human mu opioid receptor expressed in CHO cells assessed as dynamic mass redistribution by DMR assay; type: functional, cell-based
[6] = biological target: T1, Mu-type opioid receptor; test: Agonist activity at human mu opioid receptor expressed in CHO cells assessed as dynamic mass redistribution by DMR assay relative to control; type: functional, cell-based; details: filed as agonist
[7] = biological target: Kappa-type opioid receptor (Homo sapiens, UniProt P41145); test: Agonist activity at human kappa opioid receptor expressed in CHO cells assessed as stimulation of calcium mobilization by Fluo-4 AM dye based analysis; type: functional, cell-based
Kappa-type opioid receptor, sequence (P41145 whole entry): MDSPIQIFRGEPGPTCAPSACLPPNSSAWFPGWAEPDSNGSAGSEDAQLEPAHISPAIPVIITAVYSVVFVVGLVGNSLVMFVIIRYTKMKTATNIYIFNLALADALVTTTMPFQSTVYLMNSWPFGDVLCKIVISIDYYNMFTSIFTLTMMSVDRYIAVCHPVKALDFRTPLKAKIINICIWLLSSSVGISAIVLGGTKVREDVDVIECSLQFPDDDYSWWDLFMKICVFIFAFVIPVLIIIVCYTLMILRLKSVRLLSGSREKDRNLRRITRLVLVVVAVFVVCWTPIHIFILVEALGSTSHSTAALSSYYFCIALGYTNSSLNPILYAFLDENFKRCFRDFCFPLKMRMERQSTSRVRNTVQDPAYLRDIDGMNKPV

[8] = organism: Cavia porcellus; test: Anti-tussive activity in citric acid-induced guniea pig cough model assessed as reduction in cough number co- treated with nebulizer; type: functional, organism-based; details: time 30.0 min
[9] = test system: Cavia porcellus; test: Anti-tussive activity in citric acid-induced guniea pig cough model coadministered with citric acid; type: functional, organism-based
[10] = biological target: T2, Nociceptin receptor
Description: Agonist activity at human NOP receptor expressed in CHO cells assessed as dynamic mass redistribution by DMR assay

[11] = biological target: T1, Mu-type opioid receptor; details: CHO

Compound | pEC50 [1] | EC50 [2] [nM] | Ratio [3] | EC50 [4] [nM] | other results
H-YGGFVGARKSARK-NH2 | inactive |  |  |  | 
C[C@H](NC(=O)CNC(=O)[C@H](CCc1ccccc1)NC(=O)[C@H](Cc1ccccc1)NC(=O)CNC(=O)CNC(=O)[C@@H](N)Cc1ccc(O)cc1)C(=O)N[C@@H](CCCNC(=N)N)C(=O)N[C@@H](CCCCN)C(=O)N[C@@H](CO)C(=O)N[C@@H](C)C(=O)N[C@@H](CCCNC(=N)N)C(=O)N[C@@H](CCCCN)C(N)=O (H-YGGF[hPhe]GARKSARK-NH2) | inactive |  |  |  | 
H-YGGFK(Ac)GARKSARK-NH2 | inactive |  |  |  | 
C[C@H](NC(=O)CNC(=O)[C@H](Cc1ccc(F)cc1)NC(=O)[C@H](Cc1ccccc1)NC(=O)CNC(=O)CNC(=O)[C@@H](N)Cc1ccc(O)cc1)C(=O)N[C@@H](CCCNC(=N)N)C(=O)N[C@@H](CCCCN)C(=O)N[C@@H](CO)C(=O)N[C@@H](C)C(=O)N[C@@H](CCCNC(=N)N)C(=O)N[C@@H](CCCCN)C(N)=O (H-YGGF[Phe(4-F)]GARKSARK-NH2) | inactive | 49 | 0.06 |  | 
H-YGGFNGARKSARK-NH2 | inactive |  |  |  | 
C[C@H](NC(=O)CNC(=O)[C@H](Cc1ccc(N)cc1)NC(=O)[C@H](Cc1ccccc1)NC(=O)CNC(=O)CNC(=O)[C@@H](N)Cc1ccc(O)cc1)C(=O)N[C@@H](CCCNC(=N)N)C(=O)N[C@@H](CCCCN)C(=O)N[C@@H](CO)C(=O)N[C@@H](C)C(=O)N[C@@H](CCCNC(=N)N)C(=O)N[C@@H](CCCCN)C(N)=O (H-YGGF[Phe(4-NH2)]GARKSARK-NH2) |  | 30.2 | 0.08 | 372 | 
Cc1cc(O)cc(C)c1C[C@H](NC(=O)[C@H](Cc1ccccc1)NC(=O)CNC(=O)CNC(=O)[C@@H](N)Cc1c(C)cc(O)cc1C)C(=O)NCC(=O)N[C@@H](C)C(=O)N[C@@H](CCCNC(=N)N)C(=O)N[C@@H](CCCCN)C(=O)N[C@@H](CO)C(=O)N[C@@H](C)C(=O)N[C@@H](CCCNC(=N)N)C(=O)N[C@@H](CCCCN)C(N)=O (H-[Dmt]GGF[Dmt]GARKSARK-NH2) |  | 4.07 | 0.49 | 8.32 | EC50 [5]: 2.29 nM; Emax [6]: 202%; EC50 [7]: 3.24 nM; Activity [8]: Active; Activity [9]: inactive; EC50 [10]: 19.5 nM
Cc1cc(O)cc(C)c1C[C@H](N)C(=O)NCC(=O)NCC(=O)N[C@@H](Cc1ccccc1)C(=O)N[C@@H](Cc1ccc(N)cc1)C(=O)NCC(=O)N[C@@H](C)C(=O)N[C@@H](CCCNC(=N)N)C(=O)N[C@@H](CCCCN)C(=O)N[C@@H](CO)C(=O)N[C@@H](C)C(=O)N[C@@H](CCCNC(=N)N)C(=O)N[C@@H](CCCCN)C(N)=O (H-[Dmt]GGF[Phe(4-NH2)]GARKSARK-NH2) |  | 26.3 | 1.73 | 15.1 | 
H-YGGFKGARKSARK-NH2 | inactive |  |  |  | 
Cc1cc(O)cc(C)c1C[C@H](N)C(=O)NCC(=O)NCC(=O)N[C@@H](Cc1ccccc1)C(=O)N[C@@H](Cc1ccccc1)C(=O)NCC(=O)N[C@@H](C)C(=O)N[C@@H](CCCNC(=N)N)C(=O)N[C@@H](CCCCN)C(=O)N[C@@H](CO)C(=O)N[C@@H](C)C(=O)N[C@@H](CCCNC(=N)N)C(=O)N[C@@H](CCCCN)C(N)=O (H-[Dmt]GGFFGARKSARK-NH2) |  | 56.2 | 8.71 | 6.46 | 
C[C@H](NC(=O)CNC(=O)[C@H](Cc1ccc([N+](=O)[O-])cc1)NC(=O)[C@H](Cc1ccccc1)NC(=O)CNC(=O)CNC(=O)[C@@H](N)Cc1ccc(O)cc1)C(=O)N[C@@H](CCCNC(=N)N)C(=O)N[C@@H](CCCCN)C(=O)N[C@@H](CO)C(=O)N[C@@H](C)C(=O)N[C@@H](CCCNC(=N)N)C(=O)N[C@@H](CCCCN)C(N)=O (H-YGGF[Phe(4-NO2)]GARKSARK-NH2) | inactive | 49 | 0.06 |  | 
Cc1cc(O)cc(C)c1C[C@H](N)C(=O)NCC(=O)NCC(=O)N[C@@H](Cc1ccccc1)C(=O)N[C@@H](Cc1ccc(O)cc1)C(=O)NCC(=O)N[C@@H](C)C(=O)N[C@@H](CCCNC(=N)N)C(=O)N[C@@H](CCCCN)C(=O)N[C@@H](CO)C(=O)N[C@@H](C)C(=O)N[C@@H](CCCNC(=N)N)C(=O)N[C@@H](CCCCN)C(N)=O (H-[Dmt]GGFYGARKSARK-NH2) |  | 123 | 7.94 | 15.5 | 
C[C@H](NC(=O)CNC(=O)[C@H](Cc1ccc(-c2ccccc2)cc1)NC(=O)[C@H](Cc1ccccc1)NC(=O)CNC(=O)CNC(=O)[C@@H](N)Cc1ccc(O)cc1)C(=O)N[C@@H](CCCNC(=N)N)C(=O)N[C@@H](CCCCN)C(=O)N[C@@H](CO)C(=O)N[C@@H](C)C(=O)N[C@@H](CCCNC(=N)N)C(=O)N[C@@H](CCCCN)C(N)=O (H-YGGF[Bip]GARKSARK-NH2) | inactive |  |  |  | 
C[C@H](NC(=O)CNC(=O)[C@H](Cc1ccc2ccccc2c1)NC(=O)[C@H](Cc1ccccc1)NC(=O)CNC(=O)CNC(=O)[C@@H](N)Cc1ccc(O)cc1)C(=O)N[C@@H](CCCNC(=N)N)C(=O)N[C@@H](CCCCN)C(=O)N[C@@H](CO)C(=O)N[C@@H](C)C(=O)N[C@@H](CCCNC(=N)N)C(=O)N[C@@H](CCCCN)C(N)=O (H-YGGF[2Nal]GARKSARK-NH2) | inactive |  |  |  | 
Cc1cc(O)cc(C)c1C[C@H](N)C(=O)NCC(=O)NCC(=O)N[C@@H](Cc1ccccc1)C(=O)N[C@@H](Cc1cccc2ccccc12)C(=O)NCC(=O)N[C@@H](C)C(=O)N[C@@H](CCCNC(=N)N)C(=O)N[C@@H](CCCCN)C(=O)N[C@@H](CO)C(=O)N[C@@H](C)C(=O)N[C@@H](CCCNC(=N)N)C(=O)N[C@@H](CCCCN)C(N)=O (H-[Dmt]GGF[1Nal]GARKSARK-NH2) |  | 60.3 | 3.8 | 15.8 | 
C[C@H](NC(=O)CNC(=O)[C@@H](NC(=O)[C@H](Cc1ccccc1)NC(=O)CNC(=O)CNC(=O)[C@@H](N)Cc1ccccc1)[C@@H](C)O)C(=O)N[C@@H](CCCNC(=N)N)C(=O)N[C@@H](CCCCN)C(=O)N[C@@H](CO)C(=O)N[C@@H](C)C(=O)N[C@@H](CCCNC(=N)N)C(=O)N[C@@H](CCCCN)C(N)=O |  |  |  |  | pEC50 [11]: inactive
Cc1cc(O)cc(C)c1C[C@H](NC(=O)[C@H](Cc1ccccc1)NC(=O)CNC(=O)CNC(=O)[C@@H](N)Cc1ccc(O)cc1)C(=O)NCC(=O)N[C@@H](C)C(=O)N[C@@H](CCCNC(=N)N)C(=O)N[C@@H](CCCCN)C(=O)N[C@@H](CO)C(=O)N[C@@H](C)C(=O)N[C@@H](CCCNC(=N)N)C(=O)N[C@@H](CCCCN)C(N)=O (H-YGGF[Dmt]GARKSARK-NH2) |  | 17.8 | 0.09 | 195 | 
H-YGGFWGARKSARK-NH2 | inactive |  |  |  | 
CC[C@H](NC(=O)[C@H](Cc1ccccc1)NC(=O)CNC(=O)CNC(=O)[C@@H](N)Cc1ccc(O)cc1)C(=O)NCC(=O)N[C@@H](C)C(=O)N[C@@H](CCCNC(=N)N)C(=O)N[C@@H](CCCCN)C(=O)N[C@@H](CO)C(=O)N[C@@H](C)C(=O)N[C@@H](CCCNC(=N)N)C(=O)N[C@@H](CCCCN)C(N)=O (H-YGGF[Abu]GARKSARK-NH2) | inactive |  |  |  | 
H-YGGFHGARKSARK-NH2 | inactive |  |  |  | 
C[C@H](NC(=O)CNC(=O)[C@H](CN)NC(=O)[C@H](Cc1ccccc1)NC(=O)CNC(=O)CNC(=O)[C@@H](N)Cc1ccc(O)cc1)C(=O)N[C@@H](CCCNC(=N)N)C(=O)N[C@@H](CCCCN)C(=O)N[C@@H](CO)C(=O)N[C@@H](C)C(=O)N[C@@H](CCCNC(=N)N)C(=O)N[C@@H](CCCCN)C(N)=O (H-YGGF[Dap]GARKSARK-NH2) | inactive |  |  |  | 
COc1ccc(C[C@H](NC(=O)[C@H](Cc2ccccc2)NC(=O)CNC(=O)CNC(=O)[C@@H](N)Cc2ccc(O)cc2)C(=O)NCC(=O)N[C@@H](C)C(=O)N[C@@H](CCCNC(=N)N)C(=O)N[C@@H](CCCCN)C(=O)N[C@@H](CO)C(=O)N[C@@H](C)C(=O)N[C@@H](CCCNC(=N)N)C(=O)N[C@@H](CCCCN)C(N)=O)cc1 (H-YGGFY(Me)GARKSARK-NH2) | inactive | 13.2 | 0.02 |  | 
H-YGGFTGARKSARK-NH2 | inactive |  | < 0.001 |  | 
C[C@H](NC(=O)CNC(=O)[C@H](CCN)NC(=O)[C@H](Cc1ccccc1)NC(=O)CNC(=O)CNC(=O)[C@@H](N)Cc1ccc(O)cc1)C(=O)N[C@@H](CCCNC(=N)N)C(=O)N[C@@H](CCCCN)C(=O)N[C@@H](CO)C(=O)N[C@@H](C)C(=O)N[C@@H](CCCNC(=N)N)C(=O)N[C@@H](CCCCN)C(N)=O (H-YGGF[Dab]GARKSARK-NH2) | inactive |  |  |  | 
Cc1cc(O)cc(C)c1C[C@H](N)C(=O)NCC(=O)NCC(=O)N[C@@H](Cc1ccccc1)C(=O)N[C@H](C(=O)NCC(=O)N[C@@H](C)C(=O)N[C@@H](CCCNC(=N)N)C(=O)N[C@@H](CCCCN)C(=O)N[C@@H](CO)C(=O)N[C@@H](C)C(=O)N[C@@H](CCCNC(=N)N)C(=O)N[C@@H](CCCCN)C(N)=O)c1ccccc1 (H-[Dmt]GGF[Phg]GARKSARK-NH2) |  | 112 | 39 | 2.88 | 
Cc1cc(O)cc(C)c1C[C@H](N)C(=O)NCC(=O)NCC(=O)N[C@@H](Cc1ccccc1)C(=O)N[C@H](C(=O)NCC(=O)N[C@@H](C)C(=O)N[C@@H](CCCNC(=N)N)C(=O)N[C@@H](CCCCN)C(=O)N[C@@H](CO)C(=O)N[C@@H](C)C(=O)N[C@@H](CCCNC(=N)N)C(=O)N[C@@H](CCCCN)C(N)=O)[C@@H](C)O |  | 2.69 | 0.06 | 42.7 | 
